# Legend:
# C57BL6/J mice [1] = experiment: Triglyceride and cholesterol in liver tissue of fatty liver mice (ELISA); type: in vivo, mouse; details: UFAs feed 8 weeks, imiquimod 0.1 mg/kg twice a week
# Description: (§1) C57BL6/J mice (Daehan Biolink, Daejeon, Korea) that induced obesity with feed containing 45% UFAs for 8 weeks and a knockout mouse (TLR7 KO) from Dr. Akira (Osaka University, Suita, Japan) in which TLR7 is not inherently present, were used. For this purpose, imiquimod was injected twice a week at a concentration of 0.1 mg/kg, while fatty liver model was made by feeding only high unsaturated fat diet (UFAs diet with 45% of the calories, Daehan Biolink, Daejeon, Korea) for 8 weeks.
# The liver tissues separated from the mouse were finely crushed to prepare analytical samples, and the levels of triglyceride and cholesterol were measured using Enzyme Linked ImmunoSorbent Assay (ELISA) (FIG. 7).
# C57BL6/J mice [2] = experiment: Serological analysis of fatty liver mice (AST, ALT, triglyceride, total cholesterol); type: in vivo, mouse; details: UFAs feed 8 weeks, imiquimod 0.1 mg/kg twice a week
# Description: as §1
# LC3A/B and IGF-1 [3] = experiment: LC3A/B and IGF-1 protein levels in UFAs-treated mouse hepatocytes; type: cell-based; details: proteins isolated from hepatocytes, imiquimod treatment
# Description: (§2) The imiquimod purchased in Example 1 was tested in cells. Mouse hepatocytes were obtained by cellizing liver tissues isolated from normal C57BL6/J mice and TLR7 KO mice lacking the TLR7 gene and fat accumulation was induced by treatment with 10 mM of unsaturated fatty acid (UFAs) mixed with arachidonic acid (Sigma, USA) and oleic acid (Sigma, USA) 1:1.
# (§3) Cells were incubated at 37° C., 5% of CO2. DMEM (Dulbecco's modified Eagle's medium) containing 10% fetal bovine serum (FBS) and antibiotic (penicillin/streptomycin; Gibco, USA) was used as the cell culture medium. Every two days, the surface of the cultured cells was washed with phosphate buffered saline (PBS) and cells were isolated by treatment with 0.5% trypsin and then subcultured.
# (§4) The imiquimod was treated at the concentration of 10 μg/ml 1 hour before the start of the experiment. UFAs were then added and the fat accumulation was assessed after 48 hours.
# In FIG. 3, expression of autophagosome associated with congenital immunity and IGF-1 associated with fatty liver development was compared and evaluated. According to recently published international journals, It has been reported that as the expression of LC3A/B, an indicator of autophagosome increases, fatty liver improves, and as IGF-1 is inhibited, the fatty liver improves.
# C57BL6/J mice [4] = experiment: Fatty liver in mice fed high unsaturated fat diet, liver tissue and H & E staining; type: in vivo, mouse; details: 45% UFAs diet 8 weeks, imiquimod 0.1 mg/kg injected twice a week
# Description: as §1
# As a result of H & E staining of tissue sections, balloon, a sign of fat accumulation between cells and cells, was found in UFAs fed mice, which was confirmed to be improved by imiquimod injection.
# [5] = test system: SREBP-1, FAS, PPAR-γ, and aP2; experiment: Real-time RT-PCR of fat-induced genes in liver tissue of fatty liver mice; type: in vivo, mouse; details: UFAs feed 8 weeks, imiquimod 0.1 mg/kg twice a week, liver mRNA
# Description: as §1
# Fat-induced genes such as SREBP-1, FAS, PPAR-γ, and aP2 were increased in liver tissues from liver-derived mice fed UFAs compared to the control group.
# Mouse hepatocytes = experiment: Fat accumulation in UFAs-treated mouse hepatocytes (oil-red-o staining, absorbance at 540 nm); type: cell-based; details: imiquimod 10 μg/ml 1 hour before UFAs, 48 hours, vs group without treatment
# Description: as §2, §3, §4
# In order to confirm that imiquimod inhibits the fat accumulation effect in hepatocytes, the cells were cultured for 48 hours after the reagent treatment according to the method of Example 2 above. The cells were stained with an oil-red-o reagent (Lifeline Cell Technology, Carlsbad, Calif., USA) and the accumulation of fat was visually evaluated (FIG. 1).
# [6] = test system: SREBP-1, FAS, aP2 and PPARγ gene expression; experiment: Real time RT-PCR of fat-related genes in UFAs-treated mouse hepatocytes; type: cell-based; details: imiquimod 10 μg/ml
# Description: as §2, §3, §4
# To determine the level of RNA expression at the gene level of fatty acid synthase (FAS), SREBP-1 (sterol regulatory element binding protein-1), PPARγ (peroxisome proliferator-activated receptor), and aP2 (fatty acid binding protein 4), real time RT-PCR (ABI Step One Plus Sequence System, Applied Biosystems, Singapore) was performed. The PPARγ and FAS are directly related to fat metabolism, and since the metabolism is regulated by the aP2 and SREBP-1 factor, it was determined whether imiquimod affects the factor.
# From the above results, it was confirmed that imiquimod inhibited lipid accumulation in hepatocytes through inhibition of SREBP-1, FAS, aP2 and PPARγ gene expression.
# LC3A/B and IGF-1 [7] = experiment: LC3A/B and IGF-1 protein expression in liver tissue of fatty liver mice; type: in vivo, mouse; details: fatty liver induced by UFAs, imiquimod 0.1 mg/kg twice a week, proteins from liver tissue
# Description: as §1
# Autophagosome associated with congenital immunity, and expression of IGF-1 associated with fatty liver development were compared and evaluated with proteins isolated from liver tissue. Similar to the protein isolated from the hepatocytes, and expression of TLR7 and its downstream transcript Myd88 was also confirmed, and as a result, we confirmed that imiquimod affects the expression of LC3A/B, an autophagosome marker, and IGF-1, a hepatocyte-producing protein, through TLR7 hyperactivity.
smiles,measurement,setting,value
CC(C)Cn1cnc2c(N)nc3ccccc3c21 [imiquimod],cholesterol level in liver tissue,C57BL6/J mice [1],significant reductions
same,triglyceride level in liver tissue,C57BL6/J mice [1],significant reductions
same,serum ALT level,C57BL6/J mice [2],significantly decreased
same,serum AST level,C57BL6/J mice [2],significantly decreased
same,serum cholesterol level,C57BL6/J mice [2],significantly reduced
same,serum triglyceride level,C57BL6/J mice [2],significantly reduced
same,IGF-1 protein level,LC3A/B and IGF-1 [3]; IGF-1 increased by UFAs,decreases
same,LC3A/B (indicator of autophagosome) protein level,LC3A/B and IGF-1 [3]; LC3A/B inhibited by UFAs,significant increases
same,"balloon (sign of fat accumulation), H & E staining of tissue sections",C57BL6/J mice [4],improved
same,development of fatty liver (evaluation of liver tissue),C57BL6/J mice [4],significant inhibition
same,FAS gene expression in liver tissue,[5],significantly reduced
same,PPAR-γ gene expression in liver tissue,[5],significantly reduced
same,SREBP-1 gene expression in liver tissue,[5],significantly reduced
same,aP2 gene expression in liver tissue,[5],significantly reduced
same,level of fat (absorbance at 540 nm),Mouse hepatocytes,lower than that in the group without treatment
same,expression of FAS,[6],inhibited the expression
same,expression of PPARγ,[6],inhibited the expression
same,expression of SREBP-1,[6],inhibited the expression
same,expression of aP2,[6],inhibited the expression
same,IGF-1 expression in liver tissue,LC3A/B and IGF-1 [7],decreased
same,LC3A/B expression in liver tissue,LC3A/B and IGF-1 [7],significantly increased
